In patent US20240383882A1 (Ecstasy LLC, priority 2020, published 2024):
Counter-ions that a name gives are not always drawn. Like-named read-outs stand apart in the source and are kept apart here.

System: male C57BL/6 mice
Assay: 55° C. warm-water tail-flick test (antinociception)
Type: in vivo
Details: for ED50: Mus musculus
Method: Antinociception was assessed using the 55° C. warm-water tail-flick test. The latency to the first sign of a rapid tail flick was taken as the behavioral endpoint. Each mouse was first tested for baseline latency by immersing its tail in the water and recording the time to response. Mice not responding within 2 secs were excluded from further testing. Responsive mice were then s.c. administered the test compound and tested for antinociception at 30 min, 60 min, 90 min, and 120 min time points afterward. Antinociception was calculated using the following formula: percentage of antinociception=100×(test latency−control latency)/(20−control latency).
The following new compounds were also made and tested to determine the half maximal possible effective dose, or ED50 (mg/kg), in mice, using one of: the warm water tail-flick test as in Table II, spared nerve injury, chronic constriction injury, or Complete Freund's adjuvant induced inflammatory pain. The symbols in the last column are: + indicates ED 50>50 mg/kg; ++ indicates ED 50 is less than or equal to 30 mg/kg.

[1] = sc, 0.5 h, compounds of Table I, s.c., 30 min, 55° C. water, configuration tested as in Table II, read-out: ED50 (mg/kg) at 30 min on C57BL/6 mice in Warm-water Tail-flick Test
[2] = half maximal effective dose in mice, using one of: warm water tail-flick test, spared nerve injury, chronic constriction injury, or Complete Freund's adjuvant induced inflammatory pain (not stated which per compound), read-out: Biological Activity (ED50)
[3] = half maximal effective dose in mice, using one of: warm water tail-flick test, spared nerve injury, chronic constriction injury, or Complete Freund's adjuvant induced inflammatory pain (not stated which per compound)

Compound | ED50 [2] [mg/kg] | other results
CCC(C)(c1ccc(C)nc1)N1CCC(CCc2cccs2)(C2OCCc3ccccc32)C1 (single isomer, unassigned) [Compound 89, 5-(2-((R or S)-3-((S or R)-isochroman-1-yl)-3-(2-(thiophen-2-yl)ethyl)pyrrolidin-1-yl)butan-2-yl)-2-methylpyridine citrate] | – | ED50 [1]: ≤ 30 mg/kg
Cc1ccc(C(C)(C)N2CCC(CCc3ccc(F)s3)(C3OCCc4ccccc43)C2)cn1 (single isomer, unassigned) [Compound 94, 5-(2-((R or S)-3-(2-(5-fluorothiophen-2-yl)ethyl)-3-((R or S)-isochroman-1-yl)pyrrolidin-1-yl)propan-2-yl)-2-methylpyridine citrate] | – | ED50 [1]: ≤ 30 mg/kg
CCOC(c1ccccc1)C1(CCc2ccc(F)s2)CCN(C(C)(C)c2ccc(C)nc2)C1 (single isomer, unassigned) [Compound 97, 5-(2-((R or S)-3-((R or S)-ethoxy(phenyl)methyl)-3-(2-(5-fluorothiophen-2-yl)ethyl)pyrrolidin-1-yl)propan-2-yl)-2-methylpyridine citrate] | – | ED50 [1]: ≤ 30 mg/kg
CC(C)(c1ccc(Cl)cc1)N1CC[C@](CCc2ccc(S(C)(=O)=O)cc2)(C(O)C(F)(F)F)C1 (single isomer, unassigned) [Compound 98, (R or S)-1-((S)-1-(2-(4-chlorophenyl)propan-2-yl)-3-(4-(methylsulfonyl)phenethyl)pyrrolidin-3-yl)-2,2,2-trifluoroethan-1-ol] | ≤ 30 | –
CCOCC1(CCn2c(=O)[nH]c3cc(F)c(F)cc32)CCN(C(C)(C)c2ccc(C)nc2)C1 (single isomer, unassigned) [Compound 99] | – | ED50 [1]: ≤ 30 mg/kg
CC(C)(c1ccccn1)N1CC[C@@](CCc2ccc(C#N)c(F)c2)(C(O)C(F)(F)F)C1 (single isomer, unassigned) [Compound 103, 2-fluoro-4-(2-((R)-1-(2-(pyridin-2-yl)propan-2-yl)-3-((R or S)-2,2,2-trifluoro-1-hydroxyethyl)pyrrolidin-3-yl)ethyl) benzonitrile] | > 50 | –
Cc1ccc(C(C)(C)N2CCC(CCc3ccc(F)s3)(CN3CCOCC3)C2)cn1 (single isomer, unassigned) [Compound 106] | – | ED50 [1]: ≤ 30 mg/kg
Cc1ccc(C(C)(C)N2CCC(CCc3ccc(F)s3)(c3nccn3C)C2)cn1 (single isomer, unassigned) [Compound 114] | – | ED50 [1]: ≤ 30 mg/kg
CC(C)(c1ccccn1)N1CC[C@@](CCc2ccc(C#N)cc2F)(C(O)C(F)(F)F)C1 (single isomer, unassigned) [Compound 116, 3-fluoro-4-(2-((R)-1-(2-(pyridin-2-yl)propan-2-yl)-3-((R or S)-2,2,2-trifluoro-1-hydroxyethyl)pyrrolidin-3-yl)ethyl) benzonitrile] | > 50 | –
CC(C)(c1ccccn1)N1CC[C@@](CCc2ccc(C#N)cn2)(C(O)C(F)(F)F)C1 (single isomer, unassigned) [Compound 120, 6-(2-((R)-1-(2-(pyridin-2-yl)propan-2-yl)-3-((R or S)-2,2,2-trifluoro-1-hydroxyethyl)pyrrolidin-3-yl)ethyl) nicotinonitrile] | > 50 | –
Cc1ccc(C(C)(C)N2CCC(CCc3ccc(F)s3)(CNS(=O)(=O)N(C)C)C2)cn1 (single isomer, unassigned) [Compound 121] | – | ED50 [1]: ≤ 30 mg/kg
Cc1ccc(S(=O)(=O)NCC2(CCc3cc(C)c(C)s3)CCN(C(C)(C)c3ccc(C)nc3)C2)cc1 (single isomer, unassigned) [Compound 126] | – | ED50 [1]: ≤ 30 mg/kg
CC(C)(c1ccccn1)N1CC[C@@](CCc2cccc(C#N)c2)(C(O)C(F)(F)F)C1 (single isomer, unassigned) [Compound 134, 3-(2-((R)-1-(2-(pyridin-2-yl)propan-2-yl)-3-((R or S)-2,2,2-trifluoro-1-hydroxyethyl)pyrrolidin-3-yl)ethyl) benzonitrile] | > 50 | –
CC(C)(c1ccccn1)N1CC[C@@](CCc2ccccc2C#N)(C(O)C(F)(F)F)C1 (single isomer, unassigned) [Compound 135, 2-(2-((R)-1-(2-(pyridin-2-yl)propan-2-yl)-3-((R or S)-2,2,2-trifluoro-1-hydroxyethyl)pyrrolidin-3-yl)ethyl) benzonitrile] | > 50 | –
CC(C)(c1ccccn1)N1CC[C@@](CCc2ccc(F)c(F)c2)(C(O)C(F)(F)F)C1 (single isomer, unassigned) [Compound 150, (R or S)-1-((R)-3-(3,4-difluorophenethyl)-1-(2-(pyridin-2-yl)propan-2-yl)pyrrolidin-3-yl)-2,2,2-trifluoroethan-1-ol] | ≤ 30 | –
CC(C)(c1ccccn1)N1CC[C@@](CCc2ccc(F)c(F)c2)(C(O)C(F)(F)F)C1 (single isomer, unassigned) [Compound 151, (R or S)-1-((R)-3-(3,4-difluorophenethyl)-1-(2-(pyridin-2-yl)propan-2-yl)pyrrolidin-3-yl)-2,2,2-trifluoroethan-1-ol] | – | Biological Activity (ED50) [3]: + (+ indicates ED 50>50 mg/kg)
CC(C)(c1ccccn1)N1CC[C@@](CCc2ccc(C#N)s2)(C(O)C(F)(F)F)C1 (single isomer, unassigned) [Compound 152, 5-(2-((R)-1-(2-(pyridin-2-yl)propan-2-yl)-3-((R or S)-2,2,2-trifluoro-1-hydroxyethyl)pyrrolidin-3-yl)ethyl)thiophene-2-carbonitrile] | ≤ 30 | –
CC(C)(c1ccccn1)N1CC[C@@](CCc2ccc(C#N)s2)(C(O)C(F)(F)F)C1 (single isomer, unassigned) [Compound 153, 5-(2-((R)-1-(2-(pyridin-2-yl)propan-2-yl)-3-((R or S)-2,2,2-trifluoro-1-hydroxyethyl)pyrrolidin-3-yl)ethyl)thiophene-2-carbonitrile] | – | Biological Activity (ED50) [3]: + (+ indicates ED 50>50 mg/kg)
CCOC(C(F)(F)F)[C@]1(CCc2ccc(C#N)s2)CCN(C(C)(C)c2ccccn2)C1 (single isomer, unassigned) [Compound 156, 5-(2-((R)-3-((R or S)-1-ethoxy-2,2,2-trifluoroethyl)-1-(2-(pyridin-2-yl)propan-2-yl)pyrrolidin-3-yl)ethyl)thiophene-2-carbonitrile] | ≤ 30 | –
CCOC(C(F)(F)F)[C@]1(CCc2ccc(C#N)cc2)CCN(C(C)(C)c2ccc(C)nc2)C1 (single isomer, unassigned) [Compound 170, 4-(2-((R)-3-((R or S)-1-ethoxy-2,2,2-trifluoroethyl)-1-(2-(6-methylpyridin-3-yl)propan-2-yl)pyrrolidin-3-yl)ethyl) benzonitrile] | > 50 | –
CC(C)(c1ccccn1)N1CC[C@@](CCc2ccc3ccoc3c2)(C(O)C(F)(F)F)C1 (single isomer, unassigned) [Compound 172, (R or S)-1-((R)-3-(2-(benzofuran-6-yl)ethyl)-1-(2-(pyridin-2-yl)propan-2-yl)pyrrolidin-3-yl)-2,2,2-trifluoroethan-1-ol] | > 50 | –
CC(C)(c1ccccn1)N1CC[C@@](CCc2ccc3nonc3c2)(C(O)C(F)(F)F)C1 (single isomer, unassigned) [Compound 176, (R or S)-1-((R)-3-(2-(benzo[c][1,2,5]oxadiazol-5-yl)ethyl)-1-(2-(pyridin-2-yl)propan-2-yl)pyrrolidin-3-yl)-2,2,2-trifluoroethan-1-ol] | > 50 | –
CC1(C)COC1[C@]1(CCc2ccc(C#N)cc2)CCN(Cc2ccccn2)C1 (single isomer, unassigned) [Compound 192, 4-(2-((R)-3-((R or S)-3,3-dimethyloxetan-2-yl)-1-(pyridin-2-ylmethyl)pyrrolidin-3-yl)ethyl) benzonitrile] | ≤ 30 | –
CC1(C)COC1[C@]1(CCc2ccc(C#N)cc2)CCN(Cc2cccnc2)C1 (single isomer, unassigned) [Compound 193, 4-(2-((R)-3-((R or S)-3,3-dimethyloxetan-2-yl)-1-(pyridin-3-ylmethyl)pyrrolidin-3-yl)ethyl) benzonitrile] | ≤ 30 | –
Cc1ccc(CN2CC[C@@](CCc3ccc(C#N)cc3)(C3OCC3(C)C)C2)cn1 (single isomer, unassigned) [Compound 194, 4-(2-((R)-3-((R or S)-3,3-dimethyloxetan-2-yl)-1-((6-methylpyridin-3-yl)methyl)pyrrolidin-3-yl)ethyl) benzonitrile] | ≤ 30 | –
CC1(C)COC1[C@]1(CCc2ccc(C#N)cc2)CCN(Cc2ccc(Cl)cc2)C1 (single isomer, unassigned) [Compound 195, 4-(2-((R)-1-(4-chlorobenzyl)-3-((R or S)-3,3-dimethyloxetan-2-yl)pyrrolidin-3-yl)ethyl) benzonitrile] | ≤ 30 | –
N#Cc1ccc(CC[C@@]2(C3OCC3(F)F)CCN(Cc3ccccn3)C2)cc1 (single isomer, unassigned) [Compound 196, 4-(2-((R)-3-((R or S)-3,3-difluorooxetan-2-yl)-1-(pyridin-2-ylmethyl)pyrrolidin-3-yl)ethyl) benzonitrile] | ≤ 30 | –
N#Cc1ccc(CC[C@@]2(C3OCC3(F)F)CCN(Cc3cccnc3)C2)cc1 (single isomer, unassigned) [Compound 197, 4-(2-((R)-3-((R or S)-3,3-difluorooxetan-2-yl)-1-(pyridin-3-ylmethyl)pyrrolidin-3-yl)ethyl) benzonitrile] | ≤ 30 | –
